In article PMC9782626, “Copper(II) Complexes of 5–Fluoro–Salicylaldehyde: Synthesis, Characterization, Antioxidant Properties, Interaction with DNA and Serum Albumins” (Molecules, 2022):

Columns and labels:
[1] = test system: EB–DNA conjugate (CT DNA); experiment: EB-displacement studies (fluorescence of EB-DNA conjugate); format: binding, calf; details: for Stern–Volmer constant Ksv (EB–DNA) / ΔΙ/Ιο, percentage of EB–DNA fluorescence quenching: [EB] = 20 µM, [DNA] = 26 µM; for EB–DNA quenching constant kq: from KSV with τo = 23 ns; for ΔΙ/Ιο, percentage of EB–DNA fluorescence quenching: 592 nm; for EB–DNA relative fluorescence emission intensity I/Io remaining (% of initial): λemission = 592 nm, final value, r up to 0.36
From the text: EB is a well-known indicator of DNA intercalation, since its insertion in-between adjacent DNA base pairs may lead to the development of effective π–π stacking interactions. A solution containing the EB–DNA adduct presents an intense fluorescence emission band at 592 nm when excited at λex = 540 nm. The addition of a compound intercalating to DNA equally or more tightly than EB into this solution may induce changes to the emission band which are monitored, in order to gain insight into its competition with EB for the DNA intercalation site.
The fluorescence emission spectra of pretreated EB–DNA ([EB] = 20 µM, [DNA] = 26 µM) were recorded in the presence of increasing amounts of the complexes (representatively shown for complex 1 in Figure 6A).
The Stern–Volmer (KSV) constants (Table 6) of the complexes were calculated with the Stern–Volmer equation (Equation (S2)) and Stern–Volmer plots. The KSV values are relatively high (of the […] magnitude), indicating a tight binding to CT DNA. […] The EB–DNA quenching constants (kq) of the compounds (Table 6) were calculated with Equation (S3) (considering τo = 23 ns as the EB–DNA fluorescence lifetime); the kq values are higher than 10^10 M^−1 s^−1 [56], proposing the existence of a static quenching mechanism, which may confirm the interaction with the fluorophore and the displacement of EB. […]
S2Binding studies with CT DNA […]
S2.3 EB -displa cement studie s
The competition of the complexes with EB was investigated by fluorescence emission spectroscopy in order to examine whether the compounds can displace EB from its DNA-EB conjugate. The CT DNA-EB complex was formed by pre-treating 20 μM EB and 26 μM CT DNA in buffer (150 mM NaCl and 15 mM trisodium citrate at pH = 7.0).
The possible displacement of EB by the compounds and su bseq uently t he ir intercalating effect was studied by the stepwise addition of a certain amount of the solution of each […]
compound into the solution of the CT DNA-EB adduct. The solut ions were excited at 540 nm and the emission was monitored from 550-700 nm with λmax= 592- 595 nm and the effe ct of the addition of each compound to the CT-DNA EB solution was recorded. The […]
solution or in the presence of CT DNA or EB under the same experimental conditions (λ ex = 540 nm); therefore, the observed quenching of the EB-DNA solution may be attributed to the displacement of EB from its EB -DNA add uct.
The Stern-Volmer constants (KSV, in M -1) were calculated according by the linear Stern-Volmer equation (eq. S2) [S 4] and the respect ive plots Io/I versus [ compound].
Io =1+ k τ [Q] =1+ K [Q] (eq. S2) […]
where Io and I are the emission intensit ies of the EB-DNA solut ion in the absence and the presence of the compounds , respectively, τo= the average lifetime of the emitting system without the quencher and kq = the quenching constant. Taking τo = 23 ns as the fluorescence lifetime of the EB-DNA adduct [S5], the quenching co nstants (k q, in M -1s-1) of the compounds were calculated according to eq. S3 [S 4]:
S3Albumin -binding studies
In order to investigate if the compounds can bind to carrier proteins like serum albumins, we carried out albumin binding study by tryptophan fluorescence quenching experiments using bo vine serum albumin (BSA, 3 μM) in buffer (containing 15 mM trisodium citrate and 150 mM NaCl at pH 7.0). The quenching of the emission intensity of tryptophan residues of BSA at 343 nm was monitored using the co mpounds as que ncher s with increasing concentration [S4]. The fluo rescence emission spectra of the compounds were also recorded with λex = 295 nm. No fluorescence emission band was recorded and thus it was not related to the compounds . The influence of the inner-filter effect [S6] on the measurements wa s evaluated by equation S4.
Where Icorr = corrected intensity, Imeas = the measured intensity, c = the concentration of the quencher, d = the cuvette (1 cm), ε (λexc ) and ε(λe m) = the ε of the quencher at the excitation […]

[2] = DPPH radical scavenging assay; format: biochemical; details: compound 0.1 mM
From the text: For the above reasons, the antioxidant ability of 5–F–saloH and Cu(II) complexes 1–5 has been evaluated via their scavenging activity towards DPPH and ABTS radicals, as well as the ability to reduce H2O2, and in comparison with that of well-known antioxidant agents such as nordihydroguaiaretic acid (NDGA), butylated hydroxytoluene (ΒHΤ), 6–hydroxy–2,5,7,8–tetramethylchromane–2–carboxylic acid (trolox) and L–ascorbic acid (these are the most commonly used standard reference antioxidant agents). The DPPH-radical assay was developed in the 1950s and this method has been used to assess the antioxidant capacity of several metal complexes. The DPPH–scavenging ability of compounds has often been related to their ability to prevent ageing, cancer and inflammation. The ability of a compound to scavenge the cationic ABTS radicals (ABTS^+●) has been considered a measure of its total antioxidant activity. Further, hydrogen peroxide has the ability to penetrate biological membranes and, although it is not very reactive itself, it can sometimes be toxic since it may give rise to hydroxyl radicals in cells. For this reason, the removal of H2O2 is very important for the protection of living systems. When a compound is incubated with H2O2 using a peroxidase assay system, the loss of H2O2 can be measured.
S1 Antioxidant activity assay
The antioxidant activity of the compounds was evaluated via their ability to scavenge in vitro free radicals such as DPPH and ABTS and to reduce H 2O2. All the experiments were carried out at least in triplicate and the standard deviation of absorbance was less than 10% of the mean.
S1.1 Determination of the reducing activity of the radical DPPH
To an ethanolic solution of DPPH (0.1 mM) an equal volume solution of the compounds (0.1 mM) in ethanol was added. Absolute ethanol was also used as control solution. The absorbance at 517 nm was recorded at room temperature after 30 and 60 min, in order to examine the possible existence of a potential time-dependence of the DPPH radical scavenging act iv ity [S 1]. The DPPH -scavenging activity of the compounds was expressed as the percentage reduction of the absorbance values of the initial DPPH solution ( DPPH%). N DGA and BHT were used as reference comp ounds. […]

[3] = Solubility in solvents; format: physicochemical

Row | Compound | Stern–Volmer constant Ksv (EB–DNA) [1] | EB–DNA quenching constant kq [1] | DPPH% (30 min), % DPPH–scavenging ability [2] [%] | DPPH% (60 min), % DPPH–scavenging ability [2] [%] | ΔΙ/Ιο, percentage of EB–DNA fluorescence quenching [1] [%] | EB–DNA relative fluorescence emission intensity I/Io remaining (% of initial) [1] [%] | Solubility in DMSO and DMF [3] | Solubility in MeOH [3]
1 | O=Cc1cc(F)ccc1[O-].O=[N+]([O-])[O-].[Cu+2].c1ccc(-c2ccccn2)nc1 [Complex 5, [Cu(5–F–salo)(bipy)(NO3)]] | 3.14 (±0.06) × 10^4 M^−1 | 1.36 (±0.03) × 10^12 M^−1 s^−1 | 7.19 ± 0.26 | 4.06 ± 0.20 | – | – | – | –
2 | O=Cc1cc(F)ccc1[O-].[Cl-].[Cu+2].c1ccc(Nc2ccccn2)nc1 [Complex 2, [Cu(5–F–salo)(bipyam)Cl]] | 6.23 (±0.11) × 10^4 M^−1 | 2.71 (±0.05) × 10^12 M^−1 s^−1 | 7.54 ± 0.20 | 7.42 ± 0.50 | 44.5 | 55.5 | soluble | partially soluble
3 | O=Cc1cc(F)ccc1[O-].O=[N+]([O-])[O-].[Cu+2].c1cnc2c(c1)ccc1cccnc12 [Complex 4, [Cu(5–F–salo)(phen)(NO3)]] | 6.77 (±0.07) × 10^4 M^−1 | 2.94 (±0.03) × 10^12 M^−1 s^−1 | 6.15 ± 0.33 | 4.64 ± 0.10 | 48.4 | 51.6 | soluble | –
4 | O=Cc1cc(F)ccc1[O-].O=Cc1cc(F)ccc1[O-].[Cu+2] [Complex 1, [Cu(5–F–salo)2]] | 1.56 (±0.02) × 10^5 M^−1 | 6.78 (±0.09) × 10^12 M^−1 s^−1 | 9.05 ± 0.54 | 10.79 ± 0.20 | 44.8 | 55.2 | soluble | –
5 | CO.Cc1ccc2ccc3ccc(C)nc3c2n1.O=Cc1cc(F)ccc1[O-].[Cl-].[Cu+2] [Complex 3, [Cu(5–F–salo)(neoc)Cl].CH3OH] | 3.35 (±0.05) × 10^4 M^−1 | 1.46 (±0.02) × 10^12 M^−1 s^−1 | 7.42 ± 0.54 | – | 49.1 | 50.9 | soluble | partially soluble
